Assay results taken from patent publication US4486586A, “Cephalosporin derivatives” (Bristol-Myers Company, priority 1983, dated 1984).
Values after ≈ are worked out from the molar mass of the structure shown.

Legend:
[1] = tested on: Penicillinsensitive S. aureus; test: MIC, two-fold serial agar dilution in Mueller-Hinton agar, group (G+)-Ia; assay type: cell-based; conditions: Staphylococcus aureus, penicillin-sensitive S. aureus, 5 strains, read-out: Geometric Mean of MIC, (G+)-Ia
Experimental: (§1) In the primary evaluation of the compounds of this invention, the Minimum Inhibitory Concentrations (MIC's) of the compounds were determined by the two-fold serial agar dilution method in Mueller-Hinton agar against 32 strains of test organisms in six groups.

[2] = tested on: Penicillinresistant S. aureus; test: MIC, two-fold serial agar dilution in Mueller-Hinton agar, group (G+)-Ib; assay type: cell-based; conditions: Staphylococcus aureus, penicillin-resistant S. aureus, 5 strains, read-out: Geometric Mean of MIC, (G+)-Ib
Experimental: as §1
(G+)Ib: Penicillinresistant S. aureus (5

[3] = tested on: Cephalothinsensitive E. coli, Kl. pneumoniae and Pr. mirabilis; test: MIC, two-fold serial agar dilution in Mueller-Hinton agar, group (G-)-Ia; assay type: cell-based; conditions: cephalothin-sensitive E. coli, 5 strains, read-out: Geometric Mean of MIC, (G-)-Ia
Experimental: as §1
(G-)Ia: Cephalothinsensitive E. coli (2 strains), Kl. pneumoniae (1
strain) and Pr. mirabilis (2 strains)

[4] = tested on: Cephalothinresistant E. coli and Kl. pneumoniae; test: MIC, two-fold serial agar dilution in Mueller-Hinton agar, group (G-)-Ib; assay type: cell-based, E. coli (3 strains) and Kl. pneumoniae (3 strains); conditions: read-out: Geometric Mean of MIC, (G-)-Ib
Experimental: as §1
(G-)Ib: Cephalothinresistant E. coli (3 strains) and Kl. pneumoniae (3

[5] = tested on: M. morganii, Ent. cloacae and Ser. marcescens; test: MIC, two-fold serial agar dilution in Mueller-Hinton agar, group (G-)-II; assay type: cell-based; conditions: 5 strains, read-out: Geometric Mean of MIC, (G-)-II
Experimental: as §1
(G-)II: M. morganii (1 strain), Ent. cloacae (2 strains) andSer.

Ps. aeruginosa = test: MIC, two-fold serial agar dilution in Mueller-Hinton agar, group (G-)-III; assay type: cell-based; conditions: Pseudomonas aeruginosa, 7 strains, read-out: Geometric Mean of MIC, (G-)-III
Experimental: as §1
(G-)III: Ps. aeruginosa (7 strains)

| SMILES | MIC [1] [µg/mL] | MIC [2] [µg/mL] | MIC [3] [µg/mL] | MIC [4] [µg/mL] | MIC [5] [µg/mL] | MIC (Ps. aeruginosa) [µg/mL] |
| --- | --- | --- | --- | --- | --- | --- |
| CO/N=C(\C(=O)NC1C(=O)N2C(C(=O)[O-])=C(/C=C/C[N+]3(C)CCCC3)CS[C@H]12)c1csc(N)n1 (stereo partly shown) [Compound I-1A, 7-[(Z)-2-(2-Aminothiazol-4-yl)-2-methoxyiminoacetamido]-3-[(E)-3-(1-methylpyrrolidinio)-1-propen-1-yl]-3-cephem-4-carboxylate] | 0.22 (≈ 0.434 µM) | 0.59 (≈ 1.16 µM) | 0.021 (≈ 0.0415 µM) | 0.11 (≈ 0.217 µM) | 0.13 (≈ 0.257 µM) | 5.1 (≈ 10.1 µM) |
| CO/N=C(\C(=O)NC1C(=O)N2C(C(=O)[O-])=C(/C=C/C[N+]3(C)CC=CC3)CS[C@H]12)c1csc(N)n1 (stereo partly shown) [Compound I-1F, 7-[(Z)-2-(2-Aminothiazol-4-yl)-2-methoxyiminoacetamido]-3-[(E)-3-(1-methyl-3-pyrrolinio)-1-propen-1-yl]-3-cephem-4-carboxylate] | 0.15 (≈ 0.297 µM) | 0.39 (≈ 0.773 µM) | 0.014 (≈ 0.0277 µM) | 0.074 (≈ 0.147 µM) | 0.1 (≈ 0.198 µM) | 3.1 (≈ 6.14 µM) |
| Nc1cc[n+](C/C=C/C2=C(C(=O)[O-])N3C(=O)C(NC(=O)/C(=N\OC4(C(=O)O)CCC4)c4csc(N)n4)C3SC2)cc1 (stereo not shown) [Compound I-5I, 7-[(Z)-2-(2-Aminothiazol-4-yl)-2-(1-carboxycyclobut-1-oxyimino)acetamido]-3-[(E)-3-(4-aminopyridino)-1-propen-1-yl]-3-cephem-4-carboxylate] | 1.6 (≈ 2.67 µM) | 4.7 (≈ 7.84 µM) | 0.019 (≈ 0.0317 µM) | 0.2 (≈ 0.334 µM) | 0.22 (≈ 0.367 µM) | 3.5 (≈ 5.84 µM) |
| CO/N=C(\C(=O)NC1C(=O)N2C(C(=O)[O-])=C(/C=C/C[n+]3ccccc3)CS[C@H]12)c1csc(N)n1 (stereo partly shown) [Compound I-1B, 7-[(Z)-2-(2-Aminothiazol-4-yl)-2-methoxyiminoacetamido]-3-[(E)-3-pyridinio-1-propen-1-yl]-3-cephem-4-carboxylate] | 0.2 (≈ 0.4 µM) | 0.52 (≈ 1.04 µM) | 0.012 (≈ 0.024 µM) | 0.05 (≈ 0.0999 µM) | 0.1 (≈ 0.2 µM) | 5.7 (≈ 11.4 µM) |
| Nc1ccc[n+](C/C=C/C2=C(C(=O)[O-])N3C(=O)C(NC(=O)/C(=N\OC4(C(=O)O)CCC4)c4csc(N)n4)[C@H]3SC2)c1 (stereo partly shown) [Compound I-5E, 7-[(Z)-2-(2-Aminothiazol-4-yl)-2-(1-carboxycyclobut-1-oxyimino)acetamido]-3-[(E)-3-(3-amino-1-pyridinio)-1-propen-1-yl]-3-cephem-4-carboxylate] | 1.2 (≈ 2 µM) | 3.1 (≈ 5.17 µM) | 0.016 (≈ 0.0267 µM) |  | 0.15 (≈ 0.25 µM) | 1.9 (≈ 3.17 µM) |
| CO/N=C(\C(=O)NC1C(=O)N2C(C(=O)[O-])=C(/C=C/C[n+]3ccc(C(N)=O)cc3)CS[C@H]12)c1csc(N)n1 (stereo partly shown) [Compound I-1J, 7-[(Z)-2-(2-Aminothiazol-4-yl)-2-methoxyiminoacetamido]-3-[(E)-3-(4-carbamoyl-1-pyridinio)-1-propen-1-yl]-3-cephem-4-carboxylate] | 0.26 (≈ 0.478 µM) | 0.61 (≈ 1.12 µM) | 0.016 (≈ 0.0294 µM) | 0.11 (≈ 0.202 µM) | 0.13 (≈ 0.239 µM) | 5.7 (≈ 10.5 µM) |
| CO/N=C(\C(=O)NC1C(=O)N2C(C(=O)[O-])=C(/C=C/C[n+]3ccc(N)cc3)CS[C@H]12)c1csc(N)n1 (stereo partly shown) [Compound I-1I, 7-[(Z)-2-(2-Aminothiazol-4-yl)-2-methoxyiminoacetamido]-3-[(E)-3-(4-amino-1-pyridinio)-1-propen-1-yl]-3-cephem-4-carboxylate] | 0.11 (≈ 0.213 µM) | 0.34 (≈ 0.659 µM) | < 0.016 | 0.1 (≈ 0.194 µM) | 0.15 (≈ 0.291 µM) | > 25 |
| C[N+]1(C/C=C/C2=C(C(=O)[O-])N3C(=O)C(NC(=O)/C(=N\OC4(C(=O)O)CCC4)c4csc(N)n4)[C@H]3SC2)CC=CC1 (stereo partly shown) [Compound I-5F, 7-[(Z)-2-(2-Aminothiazol-4-yl)-2-(1-carboxycyclobut-1-oxyimino)acetamido]-3-[(E)-3-(1-methyl-3-pyrrolinio)-1-propen-1-yl]-3-cephem-4-carboxylate] | 1.5 (≈ 2.55 µM) | 4 (≈ 6.8 µM) | 0.037 (≈ 0.0629 µM) | 0.22 (≈ 0.374 µM) | 0.17 (≈ 0.289 µM) | 2.4 (≈ 4.08 µM) |
| CSc1scc[n+]1C/C=C/C1=C(C(=O)[O-])N2C(=O)C(NC(=O)/C(=N\OC3(C(=O)O)CCC3)c3csc(N)n3)[C@H]2SC1 (stereo partly shown) [Compound I-5G, 7-[(Z)-2-(2-Aminothiazol-4-yl)-2-(1-carboxycyclobut-1-oxyimino)acetamido]-3-[(E)-3-(2-methylthio-3-thiazolio)-1-propen-1-yl]-3-cephem-4-carboxylate] | 0.84 (≈ 1.32 µM) | 2.8 (≈ 4.4 µM) | 0.014 (≈ 0.022 µM) |  | 0.13 (≈ 0.204 µM) | 1.9 (≈ 2.98 µM) |
| CC(C)(O/N=C(\C(=O)NC1C(=O)N2C(C(=O)[O-])=C(/C=C/C[N+]3(C)CCCC3)CS[C@H]12)c1csc(N)n1)C(=O)O (stereo partly shown) [Compound I-4A, 7-[(Z)-2-(2-Aminothiazol-4-yl)-2-(2-carboxy-2-propoxyimino)acetamido]-3-[(E)-3-(1-methylpyrrolidinio)-1-propen-1-yl]-3-cephem-4-carboxylate] | 2.3 (≈ 3.97 µM) | 4.1 (≈ 7.09 µM) | 0.036 (≈ 0.0622 µM) | 0.2 (≈ 0.346 µM) | 0.17 (≈ 0.294 µM) | 2.3 (≈ 3.97 µM) |
| CO/N=C(\C(=O)NC1C(=O)N2C(C(=O)[O-])=C(/C=C/C[N+](C)(C)C)CS[C@H]12)c1csc(N)n1 (stereo partly shown) [Compound I-1D, 7-[(Z)-2-(2-Aminothiazol-4-yl)-2-methoxyiminoacetamido]-3-[(E)-3-trimethylammonio-1-propen-1-yl]-3-cephem-4-carboxylate] | 0.17 (≈ 0.354 µM) | 0.59 (≈ 1.23 µM) | 0.0093 (≈ 0.0194 µM) | 0.074 (≈ 0.154 µM) | 0.1 (≈ 0.208 µM) | 3.1 (≈ 6.45 µM) |
| CO/N=C(\C(=O)NC1C(=O)N2C(C(=O)[O-])=C(/C=C/C[n+]3ccsc3C)CS[C@H]12)c1csc(N)n1 (stereo partly shown) [Compound I-1H, 7-[(Z)-2-(2-Aminothiazol-4-yl)-2-methoxyiminoacetamido]-3-[(E)-3-(2-methyl-3-thiazolio)-1-propen-1-yl]-3-cephem-4-carboxylate] | 0.1 (≈ 0.192 µM) | 0.3 (≈ 0.576 µM) | 0.0093 (≈ 0.0179 µM) | 0.05 (≈ 0.096 µM) | 0.074 (≈ 0.142 µM) | 5.7 (≈ 10.9 µM) |
| Nc1nc(/C(=N/OC2(C(=O)O)CCC2)C(=O)NC2C(=O)N3C(C(=O)[O-])=C(/C=C/C[n+]4ccccc4)CS[C@H]23)cs1 (stereo partly shown) [Compound I-5B, 7-[(Z)-2-(2-Aminothiazol-4-yl)-2-(1-carboxycyclobut-1-oxyimino)acetamido]-3-[(E)-3-pyridinio-1-propen-1-yl]-3-cephem-4-carboxylate] | 1.6 (≈ 2.74 µM) | 4.7 (≈ 8.04 µM) | 0.019 (≈ 0.0325 µM) | 0.23 (≈ 0.393 µM) | 0.17 (≈ 0.291 µM) | 2 (≈ 3.42 µM) |
| C[N+]1(C/C=C/C2=C(C(=O)[O-])N3C(=O)C(NC(=O)/C(=N\OC4(C(=O)O)CCC4)c4csc(N)n4)C3SC2)CCCC1 (stereo not shown) [Compound I-5A] | 1.8 (≈ 3.05 µM) | 4.7 (≈ 7.96 µM) | 0.038 (≈ 0.0643 µM) | 0.23 (≈ 0.389 µM) | 0.26 (≈ 0.44 µM) | 2.6 (≈ 4.4 µM) |
| CO/N=C(\C(=O)NC1C(=O)N2C(C(=O)[O-])=C(/C=C/C[n+]3cccc(N)c3)CS[C@H]12)c1csc(N)n1 (stereo partly shown) [Compound I-1E, 7-[(Z)-2-(2-Aminothiazol-4-yl)-2-methoxyiminoacetamido]-3-[(E)-3-(3-aminopyridinio)-1-propen-1-yl]-3-cephem-4-carboxylate] | 0.1 (≈ 0.194 µM) | 0.3 (≈ 0.582 µM) | < 0.0053 | 0.05 (≈ 0.097 µM) | 0.043 (≈ 0.0834 µM) | 5.7 (≈ 11.1 µM) |
| Nc1nc(/C(=N/OC2(C(=O)O)CCC2)C(=O)NC2C(=O)N3C(C(=O)[O-])=C(/C=C/C[n+]4ccc5sc(N)nc5c4)CS[C@H]23)cs1 (stereo partly shown) [Compound I-5C, 7-[(Z)-2-(2-Aminothiazol-4-yl)-2-(1-carboxycyclobut-1-oxyimino)acetamido]-3-[(E)-3-(2-amino-5-thiazolo[4,5-c]pyridinio)-1-propen-1-yl]-3-cephem-4-carboxylate] | 1.3 (≈ 1.98 µM) | 4.4 (≈ 6.7 µM) | 0.015 (≈ 0.0228 µM) | 0.15 (≈ 0.228 µM) | 0.14 (≈ 0.213 µM) | 2.7 (≈ 4.11 µM) |
| CSc1scc[n+]1C/C=C/C1=C(C(=O)[O-])N2C(=O)C(NC(=O)/C(=N\OC(C)(C)C(=O)O)c3csc(N)n3)[C@H]2SC1 (stereo partly shown) [Compound I-4G, 7-[(Z)-2-(2-Aminothiazol-4-yl)-2-(2-carboxy-2-propoxyimino)acetamido]-3-[(E)-3-(2-methylthio-3-thiazolio)-1-propen-1-yl]-3-cephem-4-carboxylate] | 1.8 (≈ 2.88 µM) | 5.4 (≈ 8.64 µM) | 0.021 (≈ 0.0336 µM) | 0.22 (≈ 0.352 µM) | 0.2 (≈ 0.32 µM) | 3.5 (≈ 5.6 µM) |
| CC(C)(O/N=C(\C(=O)NC1C(=O)N2C(C(=O)[O-])=C(/C=C/C[n+]3ccccc3)CS[C@H]12)c1csc(N)n1)C(=O)O (stereo partly shown) [Compound I-4B, 7-[(Z)-2-(2-Aminothiazol-4-yl)-2-(2-carboxy-2-propoxyimino)acetamido]-3-[(E)-3-pyridinio-1-propen-1-yl]-3-cephem-4-carboxylate] | 6 (≈ 10.5 µM) | 15 (≈ 26.2 µM) | 0.046 (≈ 0.0803 µM) | 0.37 (≈ 0.646 µM) | 0.41 (≈ 0.716 µM) | 5 (≈ 8.73 µM) |
